Experimental data taken from patent publication US20220054448A1, “NOVEL POLYMETH[…] FOR SKELETAL MUSCLE MODULATION, METHODS AND USES THEREOF” (SOCIETE DES PRODUITS NESTLE S.A., priority 2018, published 2022).

System: Muscle Stem Cells
Assay: In vivo muscle regeneration after intramuscular cardiotoxin injury
Settings: mouse, oral gavage 100 mg/kg body weight once a day from one week before cardiotoxin injury; muscles harvested 5 days after injury; versus water control
Protocol: FIG. 5—In Vivo Muscle Regeneration: Measurement of Early Phase Expansion and Differentiation of Muscle Stem Cells
Early phase of expansion and subsequent phase of myogenic differentiation of Muscle Stem Cells were evaluated.
Data are expressed as number of cells per area of injured muscle.
The size of each newly formed myofiber has been measured based on the expression of the eMHC and laminin that allow to recognize and delineate these nascent myofibers. Results are shown as mean myofiber cross-sectional area (μm^2).
In order to reproduce the physiological process of muscle regeneration that occurs in adult skeletal muscles in response to injury or disease, we performed an intramuscular injection of cardiotoxin into mouse hindlimb muscles. One week prior to the induction of the muscle injury, mice were given by oral gavage compounds of the invention; either cirsimaritin or xanthomicrol at 100 mg/kg body weight and water was used as a control. […] Several myogenic markers were then measured. […]
In particular, this is shown be the early phase of expansion evaluated by counting the number of Pax7+ cells shown in FIG. 5A and the subsequent phase of myogenic differentiation of Muscle Stem Cells measured by counting the number of myogenin+ cells shown in FIG. 5B, respectively. Data were expressed as number of cells per arear of injured muscle. […]

| SMILES | in vivo muscle regeneration process (number of Pax7+ cells, number of myogenin+ cells, size of newly formed myofibers) |
| --- | --- |
| COc1cc2oc(-c3ccc(O)cc3)cc(=O)c2c(O)c1OC [Cirsimaritin, 5,4′-Dihydroxy-6,7-dimethoxyflavone] | promote the in vivo muscle regeneration process |
| COc1c(OC)c(O)c2c(=O)cc(-c3ccc(O)cc3)oc2c1OC [Xanthomicrol, 5,4′-Dihydroxy-6,7,8-trimethoxyflavone] | promote the in vivo muscle regeneration process |
